# In ChEMBL document CHEMBL1145498, “A systematic interaction map of validated kinase inhibitors with Ser/Thr kinases” (Proc Natl Acad Sci U S A, 2007):
# Target: Serine/threonine-protein kinase 26 (Homo sapiens) (UniProt Q9P289)
# Sequence (Q9P289 2-416 limits assumed): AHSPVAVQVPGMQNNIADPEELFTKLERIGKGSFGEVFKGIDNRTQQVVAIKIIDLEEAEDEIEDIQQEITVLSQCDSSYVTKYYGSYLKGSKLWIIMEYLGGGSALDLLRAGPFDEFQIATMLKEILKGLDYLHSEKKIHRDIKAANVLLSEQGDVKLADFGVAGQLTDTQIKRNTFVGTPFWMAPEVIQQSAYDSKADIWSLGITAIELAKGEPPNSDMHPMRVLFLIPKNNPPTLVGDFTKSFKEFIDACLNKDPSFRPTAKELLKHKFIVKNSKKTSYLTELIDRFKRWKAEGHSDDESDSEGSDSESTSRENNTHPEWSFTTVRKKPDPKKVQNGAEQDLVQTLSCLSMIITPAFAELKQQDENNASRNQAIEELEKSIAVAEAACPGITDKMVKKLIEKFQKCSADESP
row,SMILES,ΔTm [°C]
1,NS(=O)(=O)c1ccc(Nc2nc(OCC3CCCCC3)c3nc[nH]c3n2)cc1,2.9
2,COc1cc(C[C@H]2C(=O)OC[C@@H]2Cc2ccc(OC)c(OC)c2)ccc1O [ARCTIGENIN],-0.3
3,Cc1cc(C=C2C(=O)C=CC2=O)cc(C)c1O,0.4
4,C=CNC#N,-1.4
5,Cc1cc(Nc2nc(-c3ccccc3)nc3ccccc23)n[nH]1,3.3
6,c1ccc(-c2n[nH]c3c2oc2ccccc23)cc1,0.6

# Target: Serine/threonine-protein kinase PAK 6 (Homo sapiens) (UniProt Q9NQU5)
# Sequence (Q9NQU5 whole entry, looked up): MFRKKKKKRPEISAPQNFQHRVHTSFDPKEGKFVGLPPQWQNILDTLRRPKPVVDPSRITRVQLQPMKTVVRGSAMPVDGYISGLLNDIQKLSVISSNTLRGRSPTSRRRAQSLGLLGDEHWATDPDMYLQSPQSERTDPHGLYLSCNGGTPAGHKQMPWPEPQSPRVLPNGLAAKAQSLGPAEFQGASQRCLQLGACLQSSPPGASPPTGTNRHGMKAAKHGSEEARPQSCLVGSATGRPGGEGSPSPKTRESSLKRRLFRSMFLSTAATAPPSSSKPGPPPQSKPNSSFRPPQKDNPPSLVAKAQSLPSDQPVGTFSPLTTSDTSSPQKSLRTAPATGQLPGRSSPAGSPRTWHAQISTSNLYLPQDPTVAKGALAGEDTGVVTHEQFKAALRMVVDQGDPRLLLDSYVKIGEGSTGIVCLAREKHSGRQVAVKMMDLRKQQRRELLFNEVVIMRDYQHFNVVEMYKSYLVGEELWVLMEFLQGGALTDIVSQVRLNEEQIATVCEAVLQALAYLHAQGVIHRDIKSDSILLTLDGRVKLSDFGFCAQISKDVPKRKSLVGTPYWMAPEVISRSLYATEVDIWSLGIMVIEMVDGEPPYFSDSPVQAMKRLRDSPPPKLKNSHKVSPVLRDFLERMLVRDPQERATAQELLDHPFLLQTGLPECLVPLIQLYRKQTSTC
row,SMILES,ΔTm [°C]
1,NS(=O)(=O)c1ccc(Nc2nc(OCC3CCCCC3)c3nc[nH]c3n2)cc1,1.7
2,COc1cc(C[C@H]2C(=O)OC[C@@H]2Cc2ccc(OC)c(OC)c2)ccc1O [ARCTIGENIN],0.1
3,Cc1cc(C=C2C(=O)C=CC2=O)cc(C)c1O,-2.6
4,C=CNC#N,0.5
5,Cc1cc(Nc2nc(-c3ccccc3)nc3ccccc23)n[nH]1,5.4
6,c1ccc(-c2n[nH]c3c2oc2ccccc23)cc1,-0.3

# Target: Calcium/calmodulin-dependent protein kinase kinase 2 (Homo sapiens, UniProt Q96RR4)
# Sequence (Q96RR4 2-588 limits assumed): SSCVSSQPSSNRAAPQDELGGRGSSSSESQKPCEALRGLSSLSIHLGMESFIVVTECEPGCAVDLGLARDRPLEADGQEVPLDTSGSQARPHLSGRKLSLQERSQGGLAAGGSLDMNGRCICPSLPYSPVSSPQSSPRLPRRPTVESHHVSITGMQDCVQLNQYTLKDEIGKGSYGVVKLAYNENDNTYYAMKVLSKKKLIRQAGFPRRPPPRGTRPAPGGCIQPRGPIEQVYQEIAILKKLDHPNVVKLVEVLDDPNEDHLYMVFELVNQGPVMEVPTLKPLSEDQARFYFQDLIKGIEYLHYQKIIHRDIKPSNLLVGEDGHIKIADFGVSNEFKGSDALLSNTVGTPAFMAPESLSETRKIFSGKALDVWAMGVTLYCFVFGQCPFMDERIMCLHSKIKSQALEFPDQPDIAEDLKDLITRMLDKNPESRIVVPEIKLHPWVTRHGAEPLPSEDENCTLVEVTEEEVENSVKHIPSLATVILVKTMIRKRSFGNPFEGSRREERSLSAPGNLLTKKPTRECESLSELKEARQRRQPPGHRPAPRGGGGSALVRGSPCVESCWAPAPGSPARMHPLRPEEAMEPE
row,SMILES,ΔTm [°C]
1,NS(=O)(=O)c1ccc(Nc2nc(OCC3CCCCC3)c3nc[nH]c3n2)cc1,0.8
2,COc1cc(C[C@H]2C(=O)OC[C@@H]2Cc2ccc(OC)c(OC)c2)ccc1O [ARCTIGENIN],-0.9
3,Cc1cc(C=C2C(=O)C=CC2=O)cc(C)c1O,-1.4
4,C=CNC#N,0.9
5,Cc1cc(Nc2nc(-c3ccccc3)nc3ccccc23)n[nH]1,2
6,c1ccc(-c2n[nH]c3c2oc2ccccc23)cc1,2.5

# Target: Serine/threonine-protein kinase pim-2 (Homo sapiens, UniProt Q9P1W9)
# Sequence (Q9P1W9 whole entry, looked up): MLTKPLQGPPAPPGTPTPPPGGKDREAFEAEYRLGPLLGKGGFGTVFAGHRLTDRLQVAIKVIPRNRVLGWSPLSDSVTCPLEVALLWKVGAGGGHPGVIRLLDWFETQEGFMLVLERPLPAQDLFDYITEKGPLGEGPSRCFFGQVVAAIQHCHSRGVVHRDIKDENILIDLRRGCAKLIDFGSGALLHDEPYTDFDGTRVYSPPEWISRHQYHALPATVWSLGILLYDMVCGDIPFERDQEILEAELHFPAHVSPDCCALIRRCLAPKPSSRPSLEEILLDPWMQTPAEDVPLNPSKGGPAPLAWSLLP
row,SMILES,ΔTm [°C]
1,NS(=O)(=O)c1ccc(Nc2nc(OCC3CCCCC3)c3nc[nH]c3n2)cc1,0.6
2,COc1cc(C[C@H]2C(=O)OC[C@@H]2Cc2ccc(OC)c(OC)c2)ccc1O [ARCTIGENIN],0
3,Cc1cc(C=C2C(=O)C=CC2=O)cc(C)c1O,-5.7
4,C=CNC#N,0.3
5,Cc1cc(Nc2nc(-c3ccccc3)nc3ccccc23)n[nH]1,0.7
6,c1ccc(-c2n[nH]c3c2oc2ccccc23)cc1,1.1

# Target: T1, Mitogen-activated protein kinase kinase kinase 5 (Homo sapiens) (UniProt Q99683)
# T1 sequence (whole entry): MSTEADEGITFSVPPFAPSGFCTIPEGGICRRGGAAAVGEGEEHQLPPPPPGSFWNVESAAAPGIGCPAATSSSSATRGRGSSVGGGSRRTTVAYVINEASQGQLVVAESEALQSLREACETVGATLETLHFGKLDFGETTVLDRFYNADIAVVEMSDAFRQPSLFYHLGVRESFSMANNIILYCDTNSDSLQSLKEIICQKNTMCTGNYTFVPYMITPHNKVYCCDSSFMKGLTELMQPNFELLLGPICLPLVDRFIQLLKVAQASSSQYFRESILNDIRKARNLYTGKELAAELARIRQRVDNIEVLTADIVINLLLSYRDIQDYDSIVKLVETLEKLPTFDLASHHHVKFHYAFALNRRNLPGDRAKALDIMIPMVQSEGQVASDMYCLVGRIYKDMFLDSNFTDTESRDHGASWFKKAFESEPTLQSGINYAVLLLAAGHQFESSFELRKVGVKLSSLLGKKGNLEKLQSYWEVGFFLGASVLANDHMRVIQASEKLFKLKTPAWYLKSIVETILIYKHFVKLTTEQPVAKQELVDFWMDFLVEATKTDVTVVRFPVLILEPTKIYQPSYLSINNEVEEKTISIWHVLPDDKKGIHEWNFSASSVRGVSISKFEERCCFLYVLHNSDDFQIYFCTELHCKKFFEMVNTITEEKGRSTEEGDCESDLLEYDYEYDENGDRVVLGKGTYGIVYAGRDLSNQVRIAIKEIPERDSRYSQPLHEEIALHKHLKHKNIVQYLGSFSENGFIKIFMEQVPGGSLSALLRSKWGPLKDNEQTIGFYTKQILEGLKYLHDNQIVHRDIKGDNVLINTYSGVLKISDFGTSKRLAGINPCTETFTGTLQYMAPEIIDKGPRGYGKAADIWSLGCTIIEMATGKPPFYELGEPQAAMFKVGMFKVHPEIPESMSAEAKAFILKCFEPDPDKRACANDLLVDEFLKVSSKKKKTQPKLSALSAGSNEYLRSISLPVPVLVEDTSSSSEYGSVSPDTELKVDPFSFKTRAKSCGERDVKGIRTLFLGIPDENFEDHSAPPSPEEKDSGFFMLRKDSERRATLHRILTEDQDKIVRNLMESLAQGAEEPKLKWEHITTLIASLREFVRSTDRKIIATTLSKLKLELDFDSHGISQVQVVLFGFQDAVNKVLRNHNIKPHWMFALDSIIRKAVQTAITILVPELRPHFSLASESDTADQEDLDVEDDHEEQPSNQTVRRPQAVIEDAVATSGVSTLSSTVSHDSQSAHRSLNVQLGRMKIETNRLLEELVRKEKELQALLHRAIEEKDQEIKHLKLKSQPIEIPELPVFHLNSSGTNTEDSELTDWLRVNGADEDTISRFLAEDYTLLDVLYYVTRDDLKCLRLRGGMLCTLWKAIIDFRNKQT
row,SMILES,ΔTm [°C]
1,NS(=O)(=O)c1ccc(Nc2nc(OCC3CCCCC3)c3nc[nH]c3n2)cc1,2.4
2,COc1cc(C[C@H]2C(=O)OC[C@@H]2Cc2ccc(OC)c(OC)c2)ccc1O [ARCTIGENIN],0.2
3,Cc1cc(C=C2C(=O)C=CC2=O)cc(C)c1O,2.6
4,C=CNC#N,0.4
5,Cc1cc(Nc2nc(-c3ccccc3)nc3ccccc23)n[nH]1,0.9
6,c1ccc(-c2n[nH]c3c2oc2ccccc23)cc1,1.4

# Target: Serine/threonine-protein kinase Nek6 (Homo sapiens) (UniProt Q9HC98)
# Sequence (Q9HC98 whole entry): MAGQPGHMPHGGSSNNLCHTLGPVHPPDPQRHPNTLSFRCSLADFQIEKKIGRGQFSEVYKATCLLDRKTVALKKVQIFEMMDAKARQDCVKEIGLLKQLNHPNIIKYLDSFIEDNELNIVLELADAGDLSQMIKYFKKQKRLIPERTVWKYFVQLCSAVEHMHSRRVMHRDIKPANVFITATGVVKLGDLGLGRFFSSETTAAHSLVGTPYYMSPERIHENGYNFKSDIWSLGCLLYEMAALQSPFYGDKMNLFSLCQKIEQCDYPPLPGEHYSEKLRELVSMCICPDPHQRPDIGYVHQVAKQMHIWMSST
row,SMILES,ΔTm [°C]
1,NS(=O)(=O)c1ccc(Nc2nc(OCC3CCCCC3)c3nc[nH]c3n2)cc1,0.1
2,COc1cc(C[C@H]2C(=O)OC[C@@H]2Cc2ccc(OC)c(OC)c2)ccc1O [ARCTIGENIN],-0.7
3,Cc1cc(C=C2C(=O)C=CC2=O)cc(C)c1O,-0.4
4,C=CNC#N,-0.2
5,Cc1cc(Nc2nc(-c3ccccc3)nc3ccccc23)n[nH]1,0.4
6,c1ccc(-c2n[nH]c3c2oc2ccccc23)cc1,0

# Target: T2, Serine/threonine-protein kinase VRK3 (Homo sapiens) (UniProt Q8IV63)
# T2 sequence (whole entry): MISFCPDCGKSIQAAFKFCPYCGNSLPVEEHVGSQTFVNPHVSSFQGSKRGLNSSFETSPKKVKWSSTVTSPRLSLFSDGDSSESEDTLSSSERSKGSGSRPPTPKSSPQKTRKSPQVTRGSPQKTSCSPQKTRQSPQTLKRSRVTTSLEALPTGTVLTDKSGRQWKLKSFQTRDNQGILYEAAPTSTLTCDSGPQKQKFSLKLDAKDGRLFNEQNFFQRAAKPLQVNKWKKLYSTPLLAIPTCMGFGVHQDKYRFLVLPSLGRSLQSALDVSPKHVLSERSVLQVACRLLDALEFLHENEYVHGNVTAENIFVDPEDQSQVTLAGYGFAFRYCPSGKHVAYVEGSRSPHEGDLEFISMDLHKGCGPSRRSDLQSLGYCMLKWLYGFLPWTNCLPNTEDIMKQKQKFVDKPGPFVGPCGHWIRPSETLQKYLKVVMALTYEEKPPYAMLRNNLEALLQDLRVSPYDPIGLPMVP
row,SMILES,ΔTm [°C]
1,NS(=O)(=O)c1ccc(Nc2nc(OCC3CCCCC3)c3nc[nH]c3n2)cc1,4.7
2,COc1cc(C[C@H]2C(=O)OC[C@@H]2Cc2ccc(OC)c(OC)c2)ccc1O [ARCTIGENIN],0.4
3,Cc1cc(C=C2C(=O)C=CC2=O)cc(C)c1O,-0.3
4,C=CNC#N,0.9
5,Cc1cc(Nc2nc(-c3ccccc3)nc3ccccc23)n[nH]1,6.6
6,c1ccc(-c2n[nH]c3c2oc2ccccc23)cc1,1.8

# Target: Casein kinase I isoform gamma-3 (Homo sapiens) (UniProt Q9Y6M4)
# Sequence (Q9Y6M4 whole entry, looked up, canonical isoform): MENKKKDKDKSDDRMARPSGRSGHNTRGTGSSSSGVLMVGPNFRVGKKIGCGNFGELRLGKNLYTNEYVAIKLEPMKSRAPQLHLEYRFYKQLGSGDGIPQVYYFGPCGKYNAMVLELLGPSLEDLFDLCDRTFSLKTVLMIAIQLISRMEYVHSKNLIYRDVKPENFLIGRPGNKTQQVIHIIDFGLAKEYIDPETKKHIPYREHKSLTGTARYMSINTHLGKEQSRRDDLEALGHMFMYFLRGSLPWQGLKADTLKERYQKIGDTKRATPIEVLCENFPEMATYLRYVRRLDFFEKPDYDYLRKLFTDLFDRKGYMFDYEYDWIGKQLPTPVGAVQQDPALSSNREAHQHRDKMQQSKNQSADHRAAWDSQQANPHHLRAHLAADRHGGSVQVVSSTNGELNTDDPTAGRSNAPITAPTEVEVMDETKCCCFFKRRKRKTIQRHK
row,SMILES,ΔTm [°C]
1,NS(=O)(=O)c1ccc(Nc2nc(OCC3CCCCC3)c3nc[nH]c3n2)cc1,2.2
2,COc1cc(C[C@H]2C(=O)OC[C@@H]2Cc2ccc(OC)c(OC)c2)ccc1O [ARCTIGENIN],0.2
3,Cc1cc(C=C2C(=O)C=CC2=O)cc(C)c1O,-0.1
4,C=CNC#N,0.8
5,Cc1cc(Nc2nc(-c3ccccc3)nc3ccccc23)n[nH]1,2.8
6,c1ccc(-c2n[nH]c3c2oc2ccccc23)cc1,0.5

# Target: 5'-AMP-activated protein kinase catalytic subunit alpha-2 (Homo sapiens) (UniProt P54646)
# Sequence (P54646 whole entry, looked up): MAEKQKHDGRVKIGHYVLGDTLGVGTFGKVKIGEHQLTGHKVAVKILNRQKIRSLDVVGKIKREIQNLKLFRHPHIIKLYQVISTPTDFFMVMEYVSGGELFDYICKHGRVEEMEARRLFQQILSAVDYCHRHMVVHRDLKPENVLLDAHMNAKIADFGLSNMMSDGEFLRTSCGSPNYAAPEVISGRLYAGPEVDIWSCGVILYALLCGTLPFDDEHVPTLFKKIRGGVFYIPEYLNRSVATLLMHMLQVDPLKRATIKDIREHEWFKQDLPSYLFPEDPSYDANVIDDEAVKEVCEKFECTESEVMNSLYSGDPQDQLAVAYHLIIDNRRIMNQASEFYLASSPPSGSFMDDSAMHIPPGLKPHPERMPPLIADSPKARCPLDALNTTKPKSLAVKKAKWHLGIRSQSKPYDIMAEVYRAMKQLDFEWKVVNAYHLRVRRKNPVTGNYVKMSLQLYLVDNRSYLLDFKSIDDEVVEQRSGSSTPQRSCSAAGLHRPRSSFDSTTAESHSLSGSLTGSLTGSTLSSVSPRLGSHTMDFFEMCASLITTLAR
row,SMILES,ΔTm [°C]
1,NS(=O)(=O)c1ccc(Nc2nc(OCC3CCCCC3)c3nc[nH]c3n2)cc1,1.9
2,COc1cc(C[C@H]2C(=O)OC[C@@H]2Cc2ccc(OC)c(OC)c2)ccc1O [ARCTIGENIN],-0.9
3,Cc1cc(C=C2C(=O)C=CC2=O)cc(C)c1O,-2.2
4,C=CNC#N,-0.7
5,Cc1cc(Nc2nc(-c3ccccc3)nc3ccccc23)n[nH]1,5.8
6,c1ccc(-c2n[nH]c3c2oc2ccccc23)cc1,0.5

# Target: Cyclin-dependent kinase 16 (Homo sapiens) (UniProt Q00536)
# Sequence (Q00536 whole entry): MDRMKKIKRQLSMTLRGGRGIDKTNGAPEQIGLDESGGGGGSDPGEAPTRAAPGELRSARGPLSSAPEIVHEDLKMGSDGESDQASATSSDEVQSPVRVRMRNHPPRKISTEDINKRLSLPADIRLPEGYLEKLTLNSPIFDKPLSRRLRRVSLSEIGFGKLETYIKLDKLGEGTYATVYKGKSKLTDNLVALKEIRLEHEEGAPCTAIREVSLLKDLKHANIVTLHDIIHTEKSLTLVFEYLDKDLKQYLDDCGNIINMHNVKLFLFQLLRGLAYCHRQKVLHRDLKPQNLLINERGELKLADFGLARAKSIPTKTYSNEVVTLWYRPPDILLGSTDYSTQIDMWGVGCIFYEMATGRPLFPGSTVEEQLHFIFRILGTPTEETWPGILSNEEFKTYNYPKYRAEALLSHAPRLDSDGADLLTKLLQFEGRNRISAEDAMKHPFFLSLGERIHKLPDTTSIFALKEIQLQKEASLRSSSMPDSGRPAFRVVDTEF
row,SMILES,ΔTm [°C]
1,NS(=O)(=O)c1ccc(Nc2nc(OCC3CCCCC3)c3nc[nH]c3n2)cc1,3.2
2,COc1cc(C[C@H]2C(=O)OC[C@@H]2Cc2ccc(OC)c(OC)c2)ccc1O [ARCTIGENIN],-0.1
3,Cc1cc(C=C2C(=O)C=CC2=O)cc(C)c1O,2.2
4,C=CNC#N,0.4
5,Cc1cc(Nc2nc(-c3ccccc3)nc3ccccc23)n[nH]1,1.4
6,c1ccc(-c2n[nH]c3c2oc2ccccc23)cc1,-0.2

# Target: T3, Serine/threonine-protein kinase 17A (Homo sapiens) (UniProt Q9UEE5)
# T3 sequence (whole entry): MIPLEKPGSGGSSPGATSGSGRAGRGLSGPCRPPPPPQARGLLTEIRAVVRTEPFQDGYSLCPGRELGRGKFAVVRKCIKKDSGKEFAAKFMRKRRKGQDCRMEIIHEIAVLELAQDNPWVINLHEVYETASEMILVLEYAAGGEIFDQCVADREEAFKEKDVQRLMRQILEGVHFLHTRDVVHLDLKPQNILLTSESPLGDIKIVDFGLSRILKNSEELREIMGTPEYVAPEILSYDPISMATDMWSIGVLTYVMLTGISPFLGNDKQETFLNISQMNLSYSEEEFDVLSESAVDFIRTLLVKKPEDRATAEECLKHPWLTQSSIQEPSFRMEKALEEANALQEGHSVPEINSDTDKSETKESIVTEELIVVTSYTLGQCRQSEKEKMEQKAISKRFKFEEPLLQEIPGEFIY
row,SMILES,ΔTm [°C]
1,NS(=O)(=O)c1ccc(Nc2nc(OCC3CCCCC3)c3nc[nH]c3n2)cc1,1.8
2,COc1cc(C[C@H]2C(=O)OC[C@@H]2Cc2ccc(OC)c(OC)c2)ccc1O [ARCTIGENIN],1.4
3,Cc1cc(C=C2C(=O)C=CC2=O)cc(C)c1O,-4.6
4,C=CNC#N,0.7
5,Cc1cc(Nc2nc(-c3ccccc3)nc3ccccc23)n[nH]1,2.2
6,c1ccc(-c2n[nH]c3c2oc2ccccc23)cc1,1

# Target: Serine/threonine-protein kinase 10 (Homo sapiens) (UniProt O94804)
row,SMILES,ΔTm [°C]
1,NS(=O)(=O)c1ccc(Nc2nc(OCC3CCCCC3)c3nc[nH]c3n2)cc1,4.1
2,COc1cc(C[C@H]2C(=O)OC[C@@H]2Cc2ccc(OC)c(OC)c2)ccc1O [ARCTIGENIN],0.7
3,Cc1cc(C=C2C(=O)C=CC2=O)cc(C)c1O,1.2
4,C=CNC#N,-0.3
5,Cc1cc(Nc2nc(-c3ccccc3)nc3ccccc23)n[nH]1,11.1
6,c1ccc(-c2n[nH]c3c2oc2ccccc23)cc1,1.9

# Target: cAMP-dependent protein kinase catalytic subunit alpha (Homo sapiens) (UniProt P17612)
row,SMILES,ΔTm [°C]
1,NS(=O)(=O)c1ccc(Nc2nc(OCC3CCCCC3)c3nc[nH]c3n2)cc1,-0.1
2,COc1cc(C[C@H]2C(=O)OC[C@@H]2Cc2ccc(OC)c(OC)c2)ccc1O [ARCTIGENIN],0.2
3,Cc1cc(C=C2C(=O)C=CC2=O)cc(C)c1O,0.5
4,C=CNC#N,1.6
5,Cc1cc(Nc2nc(-c3ccccc3)nc3ccccc23)n[nH]1,6.4
6,c1ccc(-c2n[nH]c3c2oc2ccccc23)cc1,2.8

# Target: Tyrosine-protein kinase JAK1 (Homo sapiens) (UniProt P23458)
row,SMILES,ΔTm [°C]
1,NS(=O)(=O)c1ccc(Nc2nc(OCC3CCCCC3)c3nc[nH]c3n2)cc1,9.5
2,COc1cc(C[C@H]2C(=O)OC[C@@H]2Cc2ccc(OC)c(OC)c2)ccc1O [ARCTIGENIN],-0.1
3,Cc1cc(C=C2C(=O)C=CC2=O)cc(C)c1O,-7.1
4,C=CNC#N,-0.9
5,Cc1cc(Nc2nc(-c3ccccc3)nc3ccccc23)n[nH]1,12.2
6,c1ccc(-c2n[nH]c3c2oc2ccccc23)cc1,5.2

# Target: Serine/threonine-protein kinase 38 (Homo sapiens) (UniProt Q15208)
# Sequence (Q15208 2-465 limits assumed): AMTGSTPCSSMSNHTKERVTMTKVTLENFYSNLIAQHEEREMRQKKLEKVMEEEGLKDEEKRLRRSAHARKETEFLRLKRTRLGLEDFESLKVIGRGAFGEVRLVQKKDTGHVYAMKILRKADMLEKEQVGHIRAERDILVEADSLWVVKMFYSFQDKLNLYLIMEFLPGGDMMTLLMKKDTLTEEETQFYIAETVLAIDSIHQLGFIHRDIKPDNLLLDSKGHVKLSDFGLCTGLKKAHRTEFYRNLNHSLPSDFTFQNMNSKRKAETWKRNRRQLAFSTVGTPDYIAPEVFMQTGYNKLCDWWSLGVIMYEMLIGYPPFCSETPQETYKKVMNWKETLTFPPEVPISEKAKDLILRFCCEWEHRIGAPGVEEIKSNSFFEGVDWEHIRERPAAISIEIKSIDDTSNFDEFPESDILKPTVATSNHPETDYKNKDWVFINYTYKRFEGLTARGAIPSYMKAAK
row,SMILES,ΔTm [°C]
1,NS(=O)(=O)c1ccc(Nc2nc(OCC3CCCCC3)c3nc[nH]c3n2)cc1,1.5
2,COc1cc(C[C@H]2C(=O)OC[C@@H]2Cc2ccc(OC)c(OC)c2)ccc1O [ARCTIGENIN],0.5
3,Cc1cc(C=C2C(=O)C=CC2=O)cc(C)c1O,0.2
4,C=CNC#N,0.7
5,Cc1cc(Nc2nc(-c3ccccc3)nc3ccccc23)n[nH]1,4
6,c1ccc(-c2n[nH]c3c2oc2ccccc23)cc1,1.4
